Data: ChEMBL document CHEMBL5518188, “Discovery of 4-amino-1,6-dihydro-7H-pyrrolo[2,3-d]pyridazin-7-one derivatives as potential receptor-interacting serine/threonine-protein kinase 1 (RIPK1) inhibitors” (Eur J Med Chem, 2024)
Active and inactive are the calls of the source. The calls are words filed in the database; no cut-off is given here.

Tests used:
Mus musculus [1] = test: In vivo anti-necrotptic activity in po dosed SIRS mouse model assessed as reduction in IL-6 level measured at 4 hrs; type: functional, organism-based; settings: dose 2.5-10 mg/kg
[2] = target: T1, Receptor-interacting serine/threonine-protein kinase 1 (Homo sapiens, UniProt Q13546); test: Binding affinity to RIPK1 (unknown origin) assessed as dissociation constant
T1 sequence (Q13546 whole entry): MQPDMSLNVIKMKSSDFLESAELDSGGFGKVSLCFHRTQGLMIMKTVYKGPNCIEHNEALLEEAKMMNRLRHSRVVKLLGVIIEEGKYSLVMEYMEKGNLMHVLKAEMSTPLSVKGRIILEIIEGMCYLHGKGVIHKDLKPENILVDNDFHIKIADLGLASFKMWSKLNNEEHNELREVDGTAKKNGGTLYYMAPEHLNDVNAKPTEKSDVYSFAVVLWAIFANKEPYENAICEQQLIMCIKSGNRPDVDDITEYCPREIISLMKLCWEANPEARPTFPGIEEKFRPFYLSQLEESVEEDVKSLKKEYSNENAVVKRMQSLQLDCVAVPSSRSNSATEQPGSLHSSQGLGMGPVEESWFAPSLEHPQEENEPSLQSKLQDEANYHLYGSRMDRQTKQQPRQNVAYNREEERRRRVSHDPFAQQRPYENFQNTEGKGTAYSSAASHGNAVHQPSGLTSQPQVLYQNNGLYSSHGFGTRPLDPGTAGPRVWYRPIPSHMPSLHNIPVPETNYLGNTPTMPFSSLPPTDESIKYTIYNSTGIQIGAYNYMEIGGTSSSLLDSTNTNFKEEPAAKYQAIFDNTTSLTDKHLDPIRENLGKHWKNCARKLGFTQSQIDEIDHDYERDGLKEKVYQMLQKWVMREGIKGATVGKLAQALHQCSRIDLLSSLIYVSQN

[3] = Clearance in BALB/c mouse at 10 mg/kg, iv; type: ADME, organism-based; settings: in vivo
[4] = Metabolic stability in cryopreserved human liver microsome assessed as half life; type: ADME; settings: cryopreserved liver microsomes
[5] = Cmax in BALB/c mouse at 10 mg/kg, po; type: ADME, organism-based; settings: in vivo
HT-29 = test: Anti-necroptosis activity against TSZ-induced human HT-29 cells; type: functional, cell-based
[6] = Clearance in BALB/c mouse at 10 mg/kg, po; type: ADME, organism-based; settings: BALB/c, in vivo
[7] = target: T2, Mixed lineage kinase domain-like protein (Homo sapiens) (UniProt Q8NB16); settings: HT-29, dose 300.0 nM, time <= 6.0 hrs, TDE = time-dependent effect
T2 sequence (whole entry): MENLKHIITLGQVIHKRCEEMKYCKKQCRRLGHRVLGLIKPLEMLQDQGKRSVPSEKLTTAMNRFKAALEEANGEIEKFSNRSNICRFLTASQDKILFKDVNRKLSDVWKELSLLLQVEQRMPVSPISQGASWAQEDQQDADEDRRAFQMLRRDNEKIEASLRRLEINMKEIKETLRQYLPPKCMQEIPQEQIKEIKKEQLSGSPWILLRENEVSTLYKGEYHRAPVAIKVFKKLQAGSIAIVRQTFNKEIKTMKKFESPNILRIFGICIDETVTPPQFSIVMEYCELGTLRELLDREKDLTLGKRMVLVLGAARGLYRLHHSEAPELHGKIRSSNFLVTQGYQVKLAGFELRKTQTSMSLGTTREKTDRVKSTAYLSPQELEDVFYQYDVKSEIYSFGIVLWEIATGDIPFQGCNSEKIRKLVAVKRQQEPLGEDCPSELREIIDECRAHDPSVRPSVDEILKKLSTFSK
Description: Inhibition of MLKL phosphorylation in TSZ-induced human HT-29 cells at 300 nM by Western blot analysis

[8] = target: T3, Receptor-interacting serine/threonine-protein kinase 1 (Homo sapiens) (UniProt Q13546); settings: HT-29, dose 300.0 nM, time <= 6.0 hrs, TDE = time-dependent effect
T3 sequence (whole entry): T1 sequence (Q13546 whole entry)
Description: Inhibition of RIPK1 phosphorylation in TSZ-induced human HT-29 cells at 300 nM by Western blot analysis

[9] = target: T3, Receptor-interacting serine/threonine-protein kinase 1 (Homo sapiens); settings: HT-29, dose 3.0 nM, time 6.0 hrs
[10] = target: Angiopoietin-1 receptor (Homo sapiens) (UniProt Q02763); test: Inhibition of Tie2 (unknown origin)
Angiopoietin-1 receptor (Homo sapiens), sequence (Q02763 whole entry): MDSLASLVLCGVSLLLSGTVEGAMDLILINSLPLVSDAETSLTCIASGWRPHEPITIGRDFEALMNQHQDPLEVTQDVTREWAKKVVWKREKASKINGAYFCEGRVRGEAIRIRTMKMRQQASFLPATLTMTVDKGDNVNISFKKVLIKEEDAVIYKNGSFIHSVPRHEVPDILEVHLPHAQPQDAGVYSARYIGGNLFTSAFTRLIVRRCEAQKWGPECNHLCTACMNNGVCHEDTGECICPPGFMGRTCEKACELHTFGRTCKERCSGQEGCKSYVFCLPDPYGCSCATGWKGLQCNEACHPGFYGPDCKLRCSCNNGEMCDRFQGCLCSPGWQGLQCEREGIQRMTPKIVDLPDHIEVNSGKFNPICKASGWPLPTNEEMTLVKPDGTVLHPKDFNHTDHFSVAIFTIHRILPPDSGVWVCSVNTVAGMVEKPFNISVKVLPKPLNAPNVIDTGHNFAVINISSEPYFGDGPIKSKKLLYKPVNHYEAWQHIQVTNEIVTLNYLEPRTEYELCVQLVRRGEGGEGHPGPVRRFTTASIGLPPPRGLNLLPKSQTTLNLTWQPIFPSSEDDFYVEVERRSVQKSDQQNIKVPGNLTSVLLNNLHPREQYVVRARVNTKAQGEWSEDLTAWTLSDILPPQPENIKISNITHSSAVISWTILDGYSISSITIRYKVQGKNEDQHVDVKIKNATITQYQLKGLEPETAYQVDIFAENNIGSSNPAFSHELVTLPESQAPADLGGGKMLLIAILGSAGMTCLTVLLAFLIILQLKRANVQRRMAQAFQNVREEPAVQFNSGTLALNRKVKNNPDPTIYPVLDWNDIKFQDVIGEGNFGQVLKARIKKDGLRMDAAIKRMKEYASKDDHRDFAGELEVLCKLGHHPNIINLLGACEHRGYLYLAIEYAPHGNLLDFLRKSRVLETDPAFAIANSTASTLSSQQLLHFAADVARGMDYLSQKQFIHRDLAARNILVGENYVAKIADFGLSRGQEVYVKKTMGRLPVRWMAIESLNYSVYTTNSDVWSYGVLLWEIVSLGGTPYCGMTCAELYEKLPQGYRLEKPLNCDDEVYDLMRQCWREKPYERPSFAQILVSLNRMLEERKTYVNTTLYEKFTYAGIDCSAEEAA

[11] = target: High affinity nerve growth factor receptor (Homo sapiens) (UniProt P04629); test: Inhibition of TRKA (unknown origin)
High affinity nerve growth factor receptor (Homo sapiens), sequence (P04629 33-796 limits assumed): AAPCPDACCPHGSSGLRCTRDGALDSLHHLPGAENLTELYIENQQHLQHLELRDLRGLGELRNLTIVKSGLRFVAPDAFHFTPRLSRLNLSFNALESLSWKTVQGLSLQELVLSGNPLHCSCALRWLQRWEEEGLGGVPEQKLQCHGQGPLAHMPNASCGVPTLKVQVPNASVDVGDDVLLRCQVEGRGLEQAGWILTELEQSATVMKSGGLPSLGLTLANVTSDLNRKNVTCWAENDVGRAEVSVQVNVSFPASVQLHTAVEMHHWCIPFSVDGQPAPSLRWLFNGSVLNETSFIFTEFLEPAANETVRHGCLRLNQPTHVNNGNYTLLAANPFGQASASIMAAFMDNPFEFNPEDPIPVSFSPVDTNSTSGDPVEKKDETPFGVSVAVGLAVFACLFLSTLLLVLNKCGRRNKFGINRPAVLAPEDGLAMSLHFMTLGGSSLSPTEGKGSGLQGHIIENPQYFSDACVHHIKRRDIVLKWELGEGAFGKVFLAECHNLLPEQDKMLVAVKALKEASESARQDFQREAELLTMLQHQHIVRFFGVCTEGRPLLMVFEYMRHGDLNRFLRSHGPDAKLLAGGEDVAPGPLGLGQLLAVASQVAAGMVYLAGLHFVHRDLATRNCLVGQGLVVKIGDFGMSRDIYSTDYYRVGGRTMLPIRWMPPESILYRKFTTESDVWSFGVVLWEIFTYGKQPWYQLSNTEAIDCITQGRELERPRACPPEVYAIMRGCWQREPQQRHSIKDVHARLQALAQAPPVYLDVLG

[12] = Apparent volume of distribution in BALB/c mouse at 10 mg/kg, iv; type: ADME, organism-based; settings: in vivo, read-out: Vz
Mus musculus [13] = test: In vivo anti-necrotptic activity in SIRS mouse model assessed as protection from body temperature loss at 10 mg/kg, po measured upto 6 hrs; type: functional, organism-based
[14] = Half life in BALB/c mouse at 10 mg/kg, iv; type: ADME, organism-based; settings: in vivo
[15] = target: Receptor-interacting serine/threonine-protein kinase 3 (Homo sapiens, UniProt Q9Y572); test: Binding affinity to RIPK3 (unknown origin) assessed as dissociation constant
Receptor-interacting serine/threonine-protein kinase 3, sequence (Q9Y572 whole entry): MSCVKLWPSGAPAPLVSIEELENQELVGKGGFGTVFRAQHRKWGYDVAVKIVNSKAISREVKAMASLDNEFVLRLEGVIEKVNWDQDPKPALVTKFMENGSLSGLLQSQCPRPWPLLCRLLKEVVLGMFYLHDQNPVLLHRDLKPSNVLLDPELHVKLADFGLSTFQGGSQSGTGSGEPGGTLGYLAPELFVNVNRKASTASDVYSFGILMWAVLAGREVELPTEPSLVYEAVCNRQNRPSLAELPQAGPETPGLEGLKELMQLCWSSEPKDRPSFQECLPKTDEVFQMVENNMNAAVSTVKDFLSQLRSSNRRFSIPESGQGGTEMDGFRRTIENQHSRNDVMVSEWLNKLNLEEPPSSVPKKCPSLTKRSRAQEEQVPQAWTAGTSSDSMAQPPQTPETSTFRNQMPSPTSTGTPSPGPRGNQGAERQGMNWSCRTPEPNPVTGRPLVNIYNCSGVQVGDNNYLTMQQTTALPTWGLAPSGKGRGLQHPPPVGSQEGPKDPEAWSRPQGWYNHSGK

[16] = target: T1, Receptor-interacting serine/threonine-protein kinase 1; test: Inhibition of RIPK1 (unknown origin) in presence of ATP by kinaseProfiler assay
[17] = target: Vascular endothelial growth factor receptor 1 (Homo sapiens) (UniProt P17948); test: Inhibition of FLT1 (unknown origin)
Vascular endothelial growth factor receptor 1 (Homo sapiens), sequence (P17948 whole entry): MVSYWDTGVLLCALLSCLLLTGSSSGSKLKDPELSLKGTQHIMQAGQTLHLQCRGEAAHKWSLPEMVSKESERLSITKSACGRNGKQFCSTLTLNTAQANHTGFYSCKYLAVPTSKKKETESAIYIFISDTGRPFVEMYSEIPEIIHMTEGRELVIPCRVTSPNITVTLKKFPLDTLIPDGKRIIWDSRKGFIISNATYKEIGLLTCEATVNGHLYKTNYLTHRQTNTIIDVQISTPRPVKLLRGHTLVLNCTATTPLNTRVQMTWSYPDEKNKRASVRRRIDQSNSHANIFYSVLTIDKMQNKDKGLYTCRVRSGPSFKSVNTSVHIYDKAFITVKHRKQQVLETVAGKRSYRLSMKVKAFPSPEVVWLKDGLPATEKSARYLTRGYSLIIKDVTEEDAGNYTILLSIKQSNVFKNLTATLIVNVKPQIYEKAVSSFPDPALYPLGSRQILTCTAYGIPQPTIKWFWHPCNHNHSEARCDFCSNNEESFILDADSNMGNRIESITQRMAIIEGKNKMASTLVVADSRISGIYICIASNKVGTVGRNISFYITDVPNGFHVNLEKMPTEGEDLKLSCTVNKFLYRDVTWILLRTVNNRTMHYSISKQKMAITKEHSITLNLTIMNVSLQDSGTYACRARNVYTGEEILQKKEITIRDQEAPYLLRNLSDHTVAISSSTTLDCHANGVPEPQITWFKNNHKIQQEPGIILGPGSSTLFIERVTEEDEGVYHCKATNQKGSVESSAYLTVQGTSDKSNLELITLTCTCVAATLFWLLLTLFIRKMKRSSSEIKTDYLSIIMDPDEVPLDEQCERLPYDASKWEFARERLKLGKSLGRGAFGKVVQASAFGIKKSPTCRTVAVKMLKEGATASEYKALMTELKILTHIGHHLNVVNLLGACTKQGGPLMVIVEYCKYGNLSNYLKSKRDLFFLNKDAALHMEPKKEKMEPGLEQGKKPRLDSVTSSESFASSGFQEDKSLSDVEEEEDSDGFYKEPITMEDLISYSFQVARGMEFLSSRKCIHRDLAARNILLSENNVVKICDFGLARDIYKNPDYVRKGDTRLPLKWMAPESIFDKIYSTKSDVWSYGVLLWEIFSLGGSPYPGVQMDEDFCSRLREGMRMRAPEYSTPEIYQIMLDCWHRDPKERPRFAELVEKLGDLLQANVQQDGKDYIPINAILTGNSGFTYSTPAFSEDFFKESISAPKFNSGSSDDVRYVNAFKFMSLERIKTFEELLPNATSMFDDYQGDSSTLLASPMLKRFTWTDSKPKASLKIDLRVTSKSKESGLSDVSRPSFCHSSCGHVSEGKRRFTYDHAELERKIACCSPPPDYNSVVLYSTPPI

[18] = target: Tyrosine-protein kinase Lyn (Homo sapiens) (UniProt P07948); test: Inhibition of LYN (unknown origin)
Tyrosine-protein kinase Lyn (Homo sapiens), sequence (P07948 2-512 limits assumed): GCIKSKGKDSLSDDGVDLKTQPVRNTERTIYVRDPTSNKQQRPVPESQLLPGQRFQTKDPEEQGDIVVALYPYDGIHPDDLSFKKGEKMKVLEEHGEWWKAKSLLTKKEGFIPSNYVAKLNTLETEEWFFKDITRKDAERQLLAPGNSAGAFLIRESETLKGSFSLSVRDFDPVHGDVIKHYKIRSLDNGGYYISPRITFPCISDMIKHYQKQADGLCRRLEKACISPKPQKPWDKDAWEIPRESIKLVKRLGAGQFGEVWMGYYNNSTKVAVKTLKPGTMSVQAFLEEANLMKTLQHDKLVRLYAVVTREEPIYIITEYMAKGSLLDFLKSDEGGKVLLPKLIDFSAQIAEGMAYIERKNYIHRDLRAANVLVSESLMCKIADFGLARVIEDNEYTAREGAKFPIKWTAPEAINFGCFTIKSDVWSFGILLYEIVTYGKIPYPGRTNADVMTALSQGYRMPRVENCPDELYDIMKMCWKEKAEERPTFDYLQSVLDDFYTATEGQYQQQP

[19] = target: Vascular endothelial growth factor receptor 2 (Homo sapiens) (UniProt P35968); test: Inhibition of KDR (unknown origin)
[20] = Apparent volume of distribution in BALB/c mouse at 10 mg/kg, po; type: ADME, organism-based; settings: in vivo
[21] = target: Eukaryotic translation initiation factor 2-alpha kinase 1 (Homo sapiens) (UniProt Q9BQI3); test: Inhibition of HRI (unknown origin)
Eukaryotic translation initiation factor 2-alpha kinase 1 (Homo sapiens), sequence (Q9BQI3 whole entry): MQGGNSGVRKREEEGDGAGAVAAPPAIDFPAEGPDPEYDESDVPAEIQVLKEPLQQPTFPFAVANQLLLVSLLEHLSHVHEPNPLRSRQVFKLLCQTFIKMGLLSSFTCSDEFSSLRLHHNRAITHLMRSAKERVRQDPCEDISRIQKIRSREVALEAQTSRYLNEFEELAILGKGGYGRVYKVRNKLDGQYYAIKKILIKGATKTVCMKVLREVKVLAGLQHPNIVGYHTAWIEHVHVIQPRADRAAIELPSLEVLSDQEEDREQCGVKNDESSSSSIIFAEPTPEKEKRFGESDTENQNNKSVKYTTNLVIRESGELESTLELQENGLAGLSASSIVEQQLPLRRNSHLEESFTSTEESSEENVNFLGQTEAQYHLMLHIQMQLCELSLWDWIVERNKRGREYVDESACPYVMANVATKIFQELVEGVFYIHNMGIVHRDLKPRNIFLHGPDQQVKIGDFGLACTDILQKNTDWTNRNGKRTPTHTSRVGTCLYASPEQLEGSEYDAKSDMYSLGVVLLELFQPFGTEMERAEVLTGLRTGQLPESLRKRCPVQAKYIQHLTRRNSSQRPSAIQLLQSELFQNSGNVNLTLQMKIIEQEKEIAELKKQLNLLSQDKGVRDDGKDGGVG

[22] = Cmax in BALB/c mouse at 10 mg/kg, iv; type: ADME, organism-based; settings: in vivo
[23] = AUC (0 to t) in BALB/c mouse at 10 mg/kg, po; type: ADME, organism-based; settings: BALB/c, in vivo
[24] = Tmax in BALB/c mouse at 10 mg/kg, iv; type: ADME, organism-based; settings: in vivo
[25] = Tmax in BALB/c mouse at 10 mg/kg, po; type: ADME, organism-based; settings: in vivo
[26] = Oral bioavailability in BALB/c mouse at 10 mg/kg; type: ADME, organism-based; settings: BALB/c, in vivo
[27] = Selectivity ratio of Kd for binding affinity to RIPK1 (unknown origin) assessed as dissociation constant to Kd for binding affinity to RIPK3 (unknown origin) assessed as dissociation constant

## CC1(Cn2cc(-c3ccc4c(c3)CCN4C(=O)Cc3cccc(OC(F)(F)F)c3)c3c(N)n[nH]c(=O)c32)COC1
Mus musculus [1]
  Activity: Dose-Dependent Effect
[2]
  Kd: 3.5 nM
[3]
  clearance: 17.3 mL/min/kg
[4]
  half-life: 75.3 min
[5]
  Cmax: 2700 ng/mL
HT-29
  EC50: 4.58 nM
[6]
  CL/F: 17.3 mL/min/kg
[7]
  inhibition: Tde
[8]
  inhibition: Tde
[9]
  inhibition: Dose-Dependent Effect
[10]
  inhibition: Active
[11]
  inhibition: Active
[12]
  Vd: 1.24 L/kg
Mus musculus [13]
  Activity: Active
[14]
  half-life: 49.8 min
[15]
  Kd: 1700 nM
[16]
  IC50: 59.8 nM
[17]
  inhibition: Active
[18]
  inhibition: Active
[19]
  inhibition: Active
[20]
  Vz: 1.24 L/kg
[21]
  inhibition: Active
[22]
  Cmax: 8040 ng/mL
[23]
  AUC(0-t): 9640 ng·h/mL
[24]
  Tmax: 4.8 min
[25]
  Tmax: 4.8 min
[26]
  bioavailability: 59.5%
[27]
  Selectivity ratio: 486
